Laboratory results reported in ChEMBL document CHEMBL4138232, “O2-(2,4-dinitrophenyl)diazeniumdiolates derivatives: Design, synthesis, cytotoxic evaluation and reversing MDR in MCF-7/ADR cells” (Eur J Med Chem, 2018).
pIC50: −log10 of the molar value.

Test system: HCT-116
Assay: Cytotoxicity against human HCT116 cells overexpressing GST-Pi assessed as inhibition of cell viability at 10 uM after 48 hrs by MTT assay relative to control
Format: functional
Conditions: HCT-116, 48 h

SMILES	inhibition at 10 µM [%]
COc1ccc(C2CC(c3cccc(Oc4cc(O/N=[N+](\[O-])N5CCOCC5)c([N+](=O)[O-])cc4[N+](=O)[O-])c3)=NN2C(C)=O)cc1 (stereo not drawn)	79.9
COc1cc(C2CC(c3cccc(Oc4cc(O/N=[N+](\[O-])N5CCCCC5)c([N+](=O)[O-])cc4[N+](=O)[O-])c3)=NN2C(C)=O)cc(OC)c1OC (stereo not drawn)	80.8

Test system: MDA-MB-231
Assay: Antiproliferative activity against human MDA-MB-231 cells after 48 hrs by MTT assay relative to control
Format: functional, cell-based
Conditions: MDA-MB-231, 48 h

SMILES	pIC50
COc1ccc(C2CC(c3cccc(Oc4cc(O/N=[N+](\[O-])N5CCOCC5)c([N+](=O)[O-])cc4[N+](=O)[O-])c3)=NN2C(C)=O)cc1 (stereo not drawn)	5.68
COc1cc(C2CC(c3cccc(Oc4cc(O/N=[N+](\[O-])N5CCCCC5)c([N+](=O)[O-])cc4[N+](=O)[O-])c3)=NN2C(C)=O)cc(OC)c1OC (stereo not drawn)	6.03

Test system: HCT-116
Assay: Antiproliferative activity against human HCT116 cells after 48 hrs by MTT assay relative to control
Format: functional, cell-based
Conditions: HCT-116, 48 h

SMILES	pIC50
COc1ccc(C2CC(c3cccc(Oc4cc(O/N=[N+](\[O-])N5CCOCC5)c([N+](=O)[O-])cc4[N+](=O)[O-])c3)=NN2C(C)=O)cc1 (stereo not drawn)	5.25
COc1cc(C2CC(c3cccc(Oc4cc(O/N=[N+](\[O-])N5CCCCC5)c([N+](=O)[O-])cc4[N+](=O)[O-])c3)=NN2C(C)=O)cc(OC)c1OC (stereo not drawn)	5.97

Test system: A549
Assay: Antiproliferative activity against human A549 cells after 48 hrs by MTT assay relative to control
Format: functional, cell-based
Conditions: A549, 48 h

SMILES	pIC50
COc1ccc(C2CC(c3cccc(Oc4cc(O/N=[N+](\[O-])N5CCOCC5)c([N+](=O)[O-])cc4[N+](=O)[O-])c3)=NN2C(C)=O)cc1 (stereo not drawn)	5.54
COc1cc(C2CC(c3cccc(Oc4cc(O/N=[N+](\[O-])N5CCCCC5)c([N+](=O)[O-])cc4[N+](=O)[O-])c3)=NN2C(C)=O)cc(OC)c1OC (stereo not drawn)	5.94

Test system: U2OS
Assay: Antiproliferative activity against human U2OS cells after 48 hrs by MTT assay relative to control
Format: functional, cell-based
Conditions: not given

SMILES	pIC50
COc1ccc(C2CC(c3cccc(Oc4cc(O/N=[N+](\[O-])N5CCOCC5)c([N+](=O)[O-])cc4[N+](=O)[O-])c3)=NN2C(C)=O)cc1 (stereo not drawn)	5.43
COc1cc(C2CC(c3cccc(Oc4cc(O/N=[N+](\[O-])N5CCCCC5)c([N+](=O)[O-])cc4[N+](=O)[O-])c3)=NN2C(C)=O)cc(OC)c1OC (stereo not drawn)	5.12

Test system: MCF-10A
Assay: Antiproliferative activity against human MCF10A cells after 48 hrs by MTT assay relative to control
Format: cell-based
Conditions: not given

SMILES	pIC50
COc1ccc(C2CC(c3cccc(Oc4cc(O/N=[N+](\[O-])N5CCOCC5)c([N+](=O)[O-])cc4[N+](=O)[O-])c3)=NN2C(C)=O)cc1 (stereo not drawn)	4.89
COc1cc(C2CC(c3cccc(Oc4cc(O/N=[N+](\[O-])N5CCCCC5)c([N+](=O)[O-])cc4[N+](=O)[O-])c3)=NN2C(C)=O)cc(OC)c1OC (stereo not drawn)	4.98

Test system: not listed separately
Assay: Selectivity ratio of IC50 for human MCF10A cells to IC50 for human MDA-MB-231 cells
Format: toxicity
Conditions: MCF10A cells versus MDA-MB-231 cells, read-out: Ratio IC50

SMILES	selectivity ratio
COc1ccc(C2CC(c3cccc(Oc4cc(O/N=[N+](\[O-])N5CCOCC5)c([N+](=O)[O-])cc4[N+](=O)[O-])c3)=NN2C(C)=O)cc1 (stereo not drawn)	6.1
COc1cc(C2CC(c3cccc(Oc4cc(O/N=[N+](\[O-])N5CCCCC5)c([N+](=O)[O-])cc4[N+](=O)[O-])c3)=NN2C(C)=O)cc(OC)c1OC (stereo not drawn)	11.2

Test system: not listed separately
Assay: Selectivity ratio of IC50 for human HCT116 cells to IC50 for human MDA-MB-231 cells
Format: functional
Conditions: not given

SMILES	Ratio IC50
COc1ccc(C2CC(c3cccc(Oc4cc(O/N=[N+](\[O-])N5CCOCC5)c([N+](=O)[O-])cc4[N+](=O)[O-])c3)=NN2C(C)=O)cc1 (stereo not drawn)	2.6
COc1cc(C2CC(c3cccc(Oc4cc(O/N=[N+](\[O-])N5CCCCC5)c([N+](=O)[O-])cc4[N+](=O)[O-])c3)=NN2C(C)=O)cc(OC)c1OC (stereo not drawn)	1.1

Test system: not listed separately
Assay: Selectivity ratio of IC50 for human A549 cells to IC50 for human MDA-MB-231 cells
Format: functional
Conditions: not given

SMILES	Ratio IC50
COc1ccc(C2CC(c3cccc(Oc4cc(O/N=[N+](\[O-])N5CCOCC5)c([N+](=O)[O-])cc4[N+](=O)[O-])c3)=NN2C(C)=O)cc1 (stereo not drawn)	1.3
COc1cc(C2CC(c3cccc(Oc4cc(O/N=[N+](\[O-])N5CCCCC5)c([N+](=O)[O-])cc4[N+](=O)[O-])c3)=NN2C(C)=O)cc(OC)c1OC (stereo not drawn)	1.2

Test system: not listed separately
Assay: Selectivity ratio of IC50 for human U2OS cells to IC50 for human MDA-MB-231 cells
Format: functional
Conditions: not given

SMILES	Ratio IC50
COc1ccc(C2CC(c3cccc(Oc4cc(O/N=[N+](\[O-])N5CCOCC5)c([N+](=O)[O-])cc4[N+](=O)[O-])c3)=NN2C(C)=O)cc1 (stereo not drawn)	1.7
COc1cc(C2CC(c3cccc(Oc4cc(O/N=[N+](\[O-])N5CCCCC5)c([N+](=O)[O-])cc4[N+](=O)[O-])c3)=NN2C(C)=O)cc(OC)c1OC (stereo not drawn)	8.1

Test system: HCT-116
Assay: Growth inhibition of human HCT116 cells at 5 uM after 24 hrs by MTT assay relative to control
Format: functional
Conditions: HCT-116, 24 h, read-out: GI

SMILES	inhibition of growth at 5 µM [%]
COc1cc(C2CC(c3cccc(Oc4cc(O/N=[N+](\[O-])N5CCCCC5)c([N+](=O)[O-])cc4[N+](=O)[O-])c3)=NN2C(C)=O)cc(OC)c1OC (stereo not drawn)	74.9

Molecular target: T1, Glutathione S-transferase P (Homo sapiens, UniProt P09211)
Assay: Prodrug activation in human HCT116 cells assessed as GST-Pi-mediated NO release at 5 uM by nitrate reductase assay
Format: cell-based
Conditions: not given

T1 sequence (P09211 whole entry): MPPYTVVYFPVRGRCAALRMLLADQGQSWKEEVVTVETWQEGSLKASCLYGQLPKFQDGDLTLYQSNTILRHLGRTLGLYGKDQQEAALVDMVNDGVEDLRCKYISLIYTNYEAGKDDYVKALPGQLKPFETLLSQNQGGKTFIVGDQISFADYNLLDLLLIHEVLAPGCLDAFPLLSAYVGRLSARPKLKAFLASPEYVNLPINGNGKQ

SMILES	Drug metabolism
COc1ccc(C2CC(c3cccc(Oc4cc(O/N=[N+](\[O-])N5CCOCC5)c([N+](=O)[O-])cc4[N+](=O)[O-])c3)=NN2C(C)=O)cc1 (stereo not drawn)	Dose-dependent effect

Molecular target: T1, Glutathione S-transferase P
Assay: Prodrug activation in human HCT116 cells assessed as GST-Pi-mediated NO release at 5 uM after 24 hrs by nitrate reductase assay
Format: cell-based
Conditions: not given

SMILES	Drug metabolism
COc1cc(C2CC(c3cccc(Oc4cc(O/N=[N+](\[O-])N5CCCCC5)c([N+](=O)[O-])cc4[N+](=O)[O-])c3)=NN2C(C)=O)cc(OC)c1OC (stereo not drawn)	Metabolite_Detected

Organism: Homo sapiens
Assay: Inhibition of MDR in human MCF7/ADR cells assessed as potentiation of adriamycin-induced antiproliferative activity by measuring fold reduction in adriamycin IC50 at 10 uM after 48 hrs by MTT assay
Format: cell-based
Conditions: not given

SMILES	fold change (FC)
COc1ccc(C2CC(c3cccc(Oc4cc(O/N=[N+](\[O-])N5CCOCC5)c([N+](=O)[O-])cc4[N+](=O)[O-])c3)=NN2C(C)=O)cc1 (stereo not drawn)	56.6
COc1cc(C2CC(c3cccc(Oc4cc(O/N=[N+](\[O-])N5CCCCC5)c([N+](=O)[O-])cc4[N+](=O)[O-])c3)=NN2C(C)=O)cc(OC)c1OC (stereo not drawn)	75.3

Molecular target: T1, Glutathione S-transferase P
Assay: Prodrug activation in human HCT116 cells assessed as GST-Pi-mediated NO release at 5 uM after 24 hrs in presence of NO scavenger carboxy-PTIO by nitrate reductase assay
Format: cell-based
Conditions: not given

SMILES	Drug metabolism
COc1cc(C2CC(c3cccc(Oc4cc(O/N=[N+](\[O-])N5CCCCC5)c([N+](=O)[O-])cc4[N+](=O)[O-])c3)=NN2C(C)=O)cc(OC)c1OC (stereo not drawn)	Metabolite_Notdetected

Molecular target: T1, Glutathione S-transferase P
Assay: Prodrug activation in human HCT116 cells assessed as GST-Pi-mediated NO release at 5 uM after 24 hrs in presence of GST-Pi inhibitor etacrynic acid by nitrate reductase assay
Format: cell-based
Conditions: not given

SMILES	Drug metabolism
COc1cc(C2CC(c3cccc(Oc4cc(O/N=[N+](\[O-])N5CCCCC5)c([N+](=O)[O-])cc4[N+](=O)[O-])c3)=NN2C(C)=O)cc(OC)c1OC (stereo not drawn)	Metabolite_Notdetected

Test system: HCT-116
Assay: Growth inhibition of human HCT116 cells at 5 uM after 24 hrs in presence of NO scavenger carboxy-PTIO by MTT assay relative to control
Format: functional
Conditions: HCT-116, 24 h, read-out: GI

SMILES	inhibition of growth at 5 µM [%]
COc1cc(C2CC(c3cccc(Oc4cc(O/N=[N+](\[O-])N5CCCCC5)c([N+](=O)[O-])cc4[N+](=O)[O-])c3)=NN2C(C)=O)cc(OC)c1OC (stereo not drawn)	7.1

Test system: not listed separately
Assay: Glutathione reactivity in pH 7.4 PBS buffer assessed as parent compound remaining at 0.1 mM after 1 hr in presence of 2 mM GSH by HPLC analysis
Format: physicochemical
Conditions: PBS buffer with 2 mM glutathione (GSH), read-out: Stability

SMILES	remaining at 1 h, 100 µM [%]
COc1cc(C2CC(c3cccc(Oc4cc(O/N=[N+](\[O-])N5CCCCC5)c([N+](=O)[O-])cc4[N+](=O)[O-])c3)=NN2C(C)=O)cc(OC)c1OC (stereo not drawn)	80

Test system: not listed separately
Assay: Cytotoxicity against ADR-sensitive human MCF7 cells assessed as inhibition of cell viability at 10 uM after 48 hrs by MTT assay relative to control
Format: cell-based
Conditions: read-out: INH

SMILES	cytotoxicity at 48 h, 10 µM [%]
COc1ccc(C2CC(c3cccc(Oc4cc(O/N=[N+](\[O-])N5CCOCC5)c([N+](=O)[O-])cc4[N+](=O)[O-])c3)=NN2C(C)=O)cc1 (stereo not drawn)	21.2
COc1cc(C2CC(c3cccc(Oc4cc(O/N=[N+](\[O-])N5CCCCC5)c([N+](=O)[O-])cc4[N+](=O)[O-])c3)=NN2C(C)=O)cc(OC)c1OC (stereo not drawn)	26.4

Test system: MCF7
Assay: Cytotoxicity against ADR-sensitive human MCF7 cells assessed as inhibition of cell viability after 48 hrs by MTT assay
Format: cell-based
Conditions: MCF7, 48 h

SMILES	pIC50
COc1ccc(C2CC(c3cccc(Oc4cc(O/N=[N+](\[O-])N5CCOCC5)c([N+](=O)[O-])cc4[N+](=O)[O-])c3)=NN2C(C)=O)cc1 (stereo not drawn)	4.50
COc1cc(C2CC(c3cccc(Oc4cc(O/N=[N+](\[O-])N5CCCCC5)c([N+](=O)[O-])cc4[N+](=O)[O-])c3)=NN2C(C)=O)cc(OC)c1OC (stereo not drawn)	4.75
